In ChEMBL document CHEMBL5678812, “Inhibitors of p21-activated kinases (PAKs)” (J Med Chem, 2015):

Assays:
[1] = target: RAC-beta serine/threonine-protein kinase (Homo sapiens) (UniProt P31751); assay: Inhibition of AKT2 (unknown origin) at 0.1 uM relative to control
[2] = target: Cyclin-dependent kinase 5/CDK5 activator 1 (Homo sapiens) (UniProt Q00535+Q15078); assay: Inhibition of CDK5/p25 (unknown origin) at 0.1 uM relative to control; assay type: protein-complex assay
[3] = target: Tyrosine-protein kinase CSK (Homo sapiens) (UniProt P41240); assay: Inhibition of CSK (unknown origin) at 0.1 uM relative to control
[4] = target: Calcium/calmodulin-dependent protein kinase type II subunit beta (Homo sapiens) (UniProt Q13554); assay: Inhibition of CaMKIIbeta (unknown origin) at 0.1 uM relative to control
[5] = target: Calcium/calmodulin-dependent protein kinase type IV (Homo sapiens) (UniProt Q16566); assay: Inhibition of CamKIV (unknown origin) at 0.1 uM relative to control
[6] = target: Serine/threonine-protein kinase DCLK2 (Homo sapiens) (UniProt Q8N568); assay: Inhibition of DCAMKL2 (unknown origin) at 0.1 uM relative to control
[7] = target: DNA-PK/Ku70/Ku85 (Homo sapiens) (UniProt P78527+P12956+P13010); assay: Inhibition of DNA-PK (unknown origin) at 0.1 uM relative to control; assay type: protein-complex assay
[8] = target: Dual specificity tyrosine-phosphorylation-regulated kinase 1B (Homo sapiens) (UniProt Q9Y463); assay: Inhibition of DYRK1B (unknown origin) at 0.1 uM relative to control
[9] = target: Mitogen-activated protein kinase 3 (Homo sapiens) (UniProt P27361); assay: Inhibition of ERK1 (unknown origin) at 0.1 uM relative to control
[10] = target: Ephrin type-A receptor 8 (Homo sapiens) (UniProt P29322); assay: Inhibition of EphA8 (unknown origin) at 0.1 uM relative to control
[11] = target: Receptor tyrosine-protein kinase erbB-2 (Homo sapiens) (UniProt P04626); assay: Inhibition of ErbB2 (unknown origin) at 0.1 uM relative to control
[12] = target: Focal adhesion kinase 1 (Homo sapiens) (UniProt Q05397); assay: Inhibition of FAK (unknown origin) at 0.1 uM relative to control
[13] = target: Fibroblast growth factor receptor 4 (Homo sapiens) (UniProt P22455); assay: Inhibition of FGFR4 (unknown origin) at 0.1 uM relative to control
[14] = target: Tyrosine-protein kinase Fgr (Homo sapiens) (UniProt P09769); assay: Inhibition of Fgr (unknown origin) at 0.1 uM relative to control
[15] = target: Vascular endothelial growth factor receptor 3 (Homo sapiens) (UniProt P35916); assay: Inhibition of Flt4 (unknown origin) at 0.1 uM relative to control
[16] = target: Beta-adrenergic receptor kinase 1 (Homo sapiens) (UniProt P25098); assay: Inhibition of GRK2 (unknown origin) at 0.1 uM relative to control
[17] = target: Megakaryocyte-associated tyrosine-protein kinase (Homo sapiens) (UniProt P42679); assay: Inhibition of Hyl (unknown origin) at 0.1 uM relative to control
[18] = target: MAP kinase-activated protein kinase 2 (Homo sapiens) (UniProt P49137); assay: Inhibition of MAPKAPK2 (unknown origin) at 0.1 uM relative to control
[19] = target: MAP kinase-activated protein kinase 3 (Homo sapiens) (UniProt Q16644); assay: Inhibition of MAPKAPK3 (unknown origin) at 0.1 uM relative to control
[20] = target: Mitogen-activated protein kinase kinase kinase 9 (Homo sapiens) (UniProt P80192); assay: Inhibition of MLK1 (unknown origin) at 0.1 uM relative to control
[21] = target: Serine/threonine-protein kinase 3 (Homo sapiens) (UniProt Q13188); assay: Inhibition of MST2 (unknown origin) at 0.1 uM relative to control
[22] = target: Muscle, skeletal receptor tyrosine-protein kinase (Homo sapiens) (UniProt O15146); assay: Inhibition of MUSK (unknown origin) at 0.1 uM relative to control
[23] = target: Serine/threonine-protein kinase Nek2 (Homo sapiens) (UniProt P51955); assay: Inhibition of NEK2 (unknown origin) at 0.1 uM relative to control
[24] = target: Serine/threonine-protein kinase Nek4 (Homo sapiens) (UniProt P51957); assay: Inhibition of NEK4 (unknown origin) at 0.1 uM relative to control
[25] = target: Serine/threonine-protein kinase Nek9 (Homo sapiens) (UniProt Q8TD19); assay: Inhibition of NEK9 (unknown origin) at 0.1 uM relative to control
[26] = target: Serine/threonine-protein kinase PAK 3 (Homo sapiens, UniProt O75914); assay: Inhibition of PAK3 (unknown origin) at 0.1 uM relative to control
[27] = target: Serine/threonine-protein kinase PAK 4 (Homo sapiens, UniProt O96013); assay: Inhibition of PAK4 (unknown origin) at 0.1 uM relative to control
[28] = target: cGMP-dependent protein kinase 1 (Homo sapiens) (UniProt Q13976); assay: Inhibition of PKG1alpha (unknown origin) at 0.1 uM relative to control
[29] = target: Serine/threonine-protein kinase PLK1 (Homo sapiens) (UniProt P53350); assay: Inhibition of PLK1 (unknown origin) at 0.1 uM relative to control
[30] = target: MAP kinase-activated protein kinase 5 (Homo sapiens) (UniProt Q8IW41); assay: Inhibition of PRAK (unknown origin) at 0.1 uM relative to control
[31] = target: cAMP-dependent protein kinase catalytic subunit PRKX (Homo sapiens) (UniProt P51817); assay: Inhibition of PrKX (unknown origin) at 0.1 uM relative to control
[32] = target: Proto-oncogene tyrosine-protein kinase ROS (Homo sapiens) (UniProt P08922); assay: Inhibition of Ros (unknown origin) at 0.1 uM relative to control
[33] = target: Ribosomal protein S6 kinase alpha-2 (Homo sapiens) (UniProt Q15349); assay: Inhibition of Rsk3 (unknown origin) at 0.1 uM relative to control
[34] = target: Serine/threonine-protein kinase Sgk1 (Homo sapiens) (UniProt O00141); assay: Inhibition of SGK1 (unknown origin) at 0.1 uM relative to control
[35] = target: BDNF/NT-3 growth factors receptor (Homo sapiens) (UniProt Q16620); assay: Inhibition of TrkB (unknown origin) at 0.1 uM relative to control
Homo sapiens = species: Homo sapiens; assay: Inhibition of p70S6K (unknown origin) at 0.1 uM relative to control
[36] = target: LIM domain kinase 1 (Homo sapiens) (UniProt P53667); assay: Inhibition of LIMK1 (unknown origin) at 0.1 uM relative to control
[37] = target: Serine/threonine-protein kinase 26 (Homo sapiens) (UniProt Q9P289); assay: Inhibition of MST4 (unknown origin) at 0.1 uM relative to control
[38] = target: Phosphatidylinositol 4,5-bisphosphate 3-kinase catalytic subunit gamma isoform (Homo sapiens) (UniProt P48736); assay: Inhibition of PI3Kgamma (unknown origin) at 0.1 uM relative to control

Sequence of Serine/threonine-protein kinase PAK 4 (O96013 whole entry, looked up): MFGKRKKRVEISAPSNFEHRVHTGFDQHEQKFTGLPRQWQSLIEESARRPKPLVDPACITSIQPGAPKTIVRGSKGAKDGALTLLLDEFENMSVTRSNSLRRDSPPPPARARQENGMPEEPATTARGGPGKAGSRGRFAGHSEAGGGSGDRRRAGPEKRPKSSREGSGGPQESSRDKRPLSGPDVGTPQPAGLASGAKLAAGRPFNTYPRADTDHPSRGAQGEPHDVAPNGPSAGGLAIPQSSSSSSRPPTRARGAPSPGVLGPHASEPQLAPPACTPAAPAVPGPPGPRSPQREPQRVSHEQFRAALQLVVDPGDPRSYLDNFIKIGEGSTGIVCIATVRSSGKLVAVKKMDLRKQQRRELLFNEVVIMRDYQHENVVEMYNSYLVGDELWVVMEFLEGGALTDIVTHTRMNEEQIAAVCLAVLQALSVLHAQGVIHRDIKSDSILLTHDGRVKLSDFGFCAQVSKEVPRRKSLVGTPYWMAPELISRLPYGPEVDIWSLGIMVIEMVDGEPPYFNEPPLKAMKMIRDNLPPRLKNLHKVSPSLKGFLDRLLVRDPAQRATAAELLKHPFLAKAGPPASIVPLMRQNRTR
Sequence of Ribosomal protein S6 kinase alpha-2 (Homo sapiens) (Q15349 whole entry): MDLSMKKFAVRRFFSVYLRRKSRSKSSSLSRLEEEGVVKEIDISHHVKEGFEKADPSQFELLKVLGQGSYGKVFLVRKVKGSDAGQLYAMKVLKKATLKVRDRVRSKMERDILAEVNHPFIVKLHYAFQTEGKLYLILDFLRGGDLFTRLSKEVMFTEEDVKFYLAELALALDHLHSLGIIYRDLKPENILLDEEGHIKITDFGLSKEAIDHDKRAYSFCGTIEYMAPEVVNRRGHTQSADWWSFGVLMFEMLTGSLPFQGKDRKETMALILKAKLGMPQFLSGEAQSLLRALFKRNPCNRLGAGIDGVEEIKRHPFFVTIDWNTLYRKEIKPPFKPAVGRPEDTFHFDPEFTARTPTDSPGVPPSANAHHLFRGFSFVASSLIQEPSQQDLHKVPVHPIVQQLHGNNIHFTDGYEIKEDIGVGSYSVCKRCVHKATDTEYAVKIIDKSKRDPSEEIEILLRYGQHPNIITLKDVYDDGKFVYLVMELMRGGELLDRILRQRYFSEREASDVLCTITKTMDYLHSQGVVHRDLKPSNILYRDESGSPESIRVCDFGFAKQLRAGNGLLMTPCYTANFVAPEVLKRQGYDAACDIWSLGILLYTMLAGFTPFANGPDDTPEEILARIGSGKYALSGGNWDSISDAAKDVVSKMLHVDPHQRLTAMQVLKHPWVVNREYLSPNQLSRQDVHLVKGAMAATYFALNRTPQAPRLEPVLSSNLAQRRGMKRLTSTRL
Sequence of Mitogen-activated protein kinase kinase kinase 9 (Homo sapiens) (P80192 whole entry, looked up): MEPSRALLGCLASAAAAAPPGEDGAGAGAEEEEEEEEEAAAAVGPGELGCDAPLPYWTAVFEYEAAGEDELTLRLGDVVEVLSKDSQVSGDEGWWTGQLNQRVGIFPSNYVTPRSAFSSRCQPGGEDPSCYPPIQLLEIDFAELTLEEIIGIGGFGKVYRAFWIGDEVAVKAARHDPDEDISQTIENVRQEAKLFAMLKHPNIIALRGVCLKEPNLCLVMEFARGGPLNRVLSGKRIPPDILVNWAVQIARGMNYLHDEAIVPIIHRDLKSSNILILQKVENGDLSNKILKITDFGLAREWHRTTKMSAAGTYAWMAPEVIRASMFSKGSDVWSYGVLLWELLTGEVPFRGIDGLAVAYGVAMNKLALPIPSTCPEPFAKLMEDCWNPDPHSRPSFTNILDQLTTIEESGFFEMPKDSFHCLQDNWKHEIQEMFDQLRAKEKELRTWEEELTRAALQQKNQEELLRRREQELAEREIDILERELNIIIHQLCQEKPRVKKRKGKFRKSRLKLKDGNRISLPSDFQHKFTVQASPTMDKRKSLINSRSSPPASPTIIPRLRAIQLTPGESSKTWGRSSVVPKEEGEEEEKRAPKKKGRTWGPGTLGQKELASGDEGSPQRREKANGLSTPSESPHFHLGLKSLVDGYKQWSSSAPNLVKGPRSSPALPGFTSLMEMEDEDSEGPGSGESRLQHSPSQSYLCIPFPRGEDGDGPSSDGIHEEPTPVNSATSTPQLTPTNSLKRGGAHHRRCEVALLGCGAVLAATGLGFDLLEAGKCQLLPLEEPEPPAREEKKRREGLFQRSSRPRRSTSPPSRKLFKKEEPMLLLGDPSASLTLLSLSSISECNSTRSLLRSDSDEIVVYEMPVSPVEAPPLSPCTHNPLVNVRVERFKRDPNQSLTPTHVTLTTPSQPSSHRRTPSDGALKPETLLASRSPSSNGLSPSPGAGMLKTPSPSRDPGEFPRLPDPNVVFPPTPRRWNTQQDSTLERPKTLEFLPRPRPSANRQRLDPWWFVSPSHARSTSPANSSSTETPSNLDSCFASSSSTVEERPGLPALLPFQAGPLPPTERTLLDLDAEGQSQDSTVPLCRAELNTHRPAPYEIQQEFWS
Sequence of Serine/threonine-protein kinase PAK 3 (O75914 whole entry, looked up): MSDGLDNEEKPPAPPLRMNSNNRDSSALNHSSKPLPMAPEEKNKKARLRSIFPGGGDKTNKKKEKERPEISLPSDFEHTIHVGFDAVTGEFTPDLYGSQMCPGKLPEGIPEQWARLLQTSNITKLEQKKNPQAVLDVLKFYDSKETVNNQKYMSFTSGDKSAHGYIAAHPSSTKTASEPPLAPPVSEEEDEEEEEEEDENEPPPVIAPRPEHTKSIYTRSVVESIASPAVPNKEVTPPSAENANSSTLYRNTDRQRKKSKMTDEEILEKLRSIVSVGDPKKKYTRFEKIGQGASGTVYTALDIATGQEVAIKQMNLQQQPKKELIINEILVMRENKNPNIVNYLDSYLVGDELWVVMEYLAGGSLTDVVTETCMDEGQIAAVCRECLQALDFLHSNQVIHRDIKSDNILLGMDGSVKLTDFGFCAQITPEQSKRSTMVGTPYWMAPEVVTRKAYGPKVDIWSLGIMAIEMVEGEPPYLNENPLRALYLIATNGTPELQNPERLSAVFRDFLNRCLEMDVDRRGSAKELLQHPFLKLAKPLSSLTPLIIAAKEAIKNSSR
Sequence of Mitogen-activated protein kinase 3 (Homo sapiens) (P27361 whole entry): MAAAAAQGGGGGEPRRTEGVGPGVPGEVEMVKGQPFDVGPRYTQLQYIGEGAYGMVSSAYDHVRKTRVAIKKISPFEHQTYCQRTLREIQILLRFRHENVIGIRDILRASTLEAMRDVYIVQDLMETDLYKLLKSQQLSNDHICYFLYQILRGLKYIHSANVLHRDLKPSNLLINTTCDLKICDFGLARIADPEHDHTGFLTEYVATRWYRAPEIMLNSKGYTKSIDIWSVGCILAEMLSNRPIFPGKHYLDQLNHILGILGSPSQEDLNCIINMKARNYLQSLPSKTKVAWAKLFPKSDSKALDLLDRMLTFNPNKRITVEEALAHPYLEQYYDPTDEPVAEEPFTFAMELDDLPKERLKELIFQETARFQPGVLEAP
Sequence of Serine/threonine-protein kinase Nek9 (Homo sapiens) (Q8TD19 whole entry): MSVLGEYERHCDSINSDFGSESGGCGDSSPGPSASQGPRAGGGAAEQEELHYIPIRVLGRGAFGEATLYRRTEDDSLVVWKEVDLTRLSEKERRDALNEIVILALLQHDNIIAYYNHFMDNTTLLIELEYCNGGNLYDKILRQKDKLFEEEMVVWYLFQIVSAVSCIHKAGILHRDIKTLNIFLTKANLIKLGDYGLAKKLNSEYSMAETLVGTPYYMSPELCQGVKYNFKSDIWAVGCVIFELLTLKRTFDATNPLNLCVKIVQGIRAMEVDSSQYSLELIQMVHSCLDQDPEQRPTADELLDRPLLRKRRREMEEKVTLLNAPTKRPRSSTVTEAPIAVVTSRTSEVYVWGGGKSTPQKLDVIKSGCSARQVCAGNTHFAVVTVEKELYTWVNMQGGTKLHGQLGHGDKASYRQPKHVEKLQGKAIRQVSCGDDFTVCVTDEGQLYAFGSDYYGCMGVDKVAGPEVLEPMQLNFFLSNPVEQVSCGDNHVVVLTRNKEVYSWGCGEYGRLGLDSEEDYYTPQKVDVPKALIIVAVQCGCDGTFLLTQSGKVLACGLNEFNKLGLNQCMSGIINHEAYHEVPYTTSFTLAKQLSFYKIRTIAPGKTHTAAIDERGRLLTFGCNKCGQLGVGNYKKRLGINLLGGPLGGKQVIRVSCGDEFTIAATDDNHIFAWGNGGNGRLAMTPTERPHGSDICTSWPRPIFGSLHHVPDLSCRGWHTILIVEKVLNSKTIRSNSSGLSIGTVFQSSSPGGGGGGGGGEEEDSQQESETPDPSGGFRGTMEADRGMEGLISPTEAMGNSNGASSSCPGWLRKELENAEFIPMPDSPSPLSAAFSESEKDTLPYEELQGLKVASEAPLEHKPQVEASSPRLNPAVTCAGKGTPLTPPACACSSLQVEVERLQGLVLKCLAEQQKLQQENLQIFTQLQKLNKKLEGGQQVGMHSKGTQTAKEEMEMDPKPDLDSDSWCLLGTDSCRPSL
Sequence of MAP kinase-activated protein kinase 5 (Homo sapiens) (Q8IW41 whole entry): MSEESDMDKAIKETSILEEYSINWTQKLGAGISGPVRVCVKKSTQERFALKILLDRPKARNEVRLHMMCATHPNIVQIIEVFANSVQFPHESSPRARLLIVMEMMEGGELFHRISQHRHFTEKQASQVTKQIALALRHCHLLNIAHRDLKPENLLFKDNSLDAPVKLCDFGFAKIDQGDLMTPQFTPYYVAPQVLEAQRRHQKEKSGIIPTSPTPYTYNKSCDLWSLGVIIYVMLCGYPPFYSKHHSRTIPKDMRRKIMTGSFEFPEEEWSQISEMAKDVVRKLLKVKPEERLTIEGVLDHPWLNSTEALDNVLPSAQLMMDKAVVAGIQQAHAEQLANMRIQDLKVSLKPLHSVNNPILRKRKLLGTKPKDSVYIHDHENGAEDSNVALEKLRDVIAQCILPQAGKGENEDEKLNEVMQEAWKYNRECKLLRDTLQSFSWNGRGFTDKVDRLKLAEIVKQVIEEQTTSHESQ

Work on `COCCNc1nc2ccc(C#CC3(O)CCCCC3)cc2n1-c1ccnc(N)n1` yielded an inhibition [1] of 3.6%, an inhibition [2] of 4.3% and an inhibition [3] of 9.8%. It also gave an inhibition [4] of 11.7%, an inhibition [5] of -6.6% and an inhibition [6] of 10.9%. The inhibition [7] was -6.3%, the inhibition [8] was 0.5% and the inhibition [9] was 6.2%. The inhibition [10] was 9.8%, the inhibition [11] was -5% and the inhibition [12] was 3.5%. It also gave an inhibition [13] of -1%, an inhibition [14] of 3.6% and an inhibition [15] of 1%. The inhibition [16] was -9.6%, the inhibition [17] was 6.6% and the inhibition [18] was 3.9%. The inhibition [19] was 4.8%, the inhibition [20] was 15.4% and the inhibition [21] was 8.8%. It also gave an inhibition [22] of -2.8%, an inhibition [23] of 6.3% and an inhibition [24] of 2%. The inhibition [25] was 1.6%, the inhibition [26] was 3.3% and the inhibition [27] was 89.5%. For the same molecule, the inhibition [28] was 9.3%, the inhibition [29] was -2% and the inhibition [30] was 5%. It also gave an inhibition [31] of 5.3%, an inhibition [32] of 6.8% and an inhibition [33] of 14.9%. For the same molecule, the inhibition [34] was 4.4%, the inhibition [35] was 15.1% and the inhibition (Homo sapiens) was 7.2%.

`CN1CCc2cc(-c3cnc4[nH]cc(C(=O)c5ccccc5Cl)c4c3)ccc2C1` was tested, and the inhibition [9] was 12.3%, the inhibition [20] was 11.4% and the inhibition [25] was -0.9%. The inhibition [26] was 92.6%, the inhibition [27] was 29.2% and the inhibition [33] was -6%. For the same molecule, the inhibition (Homo sapiens) was 15.3%, the inhibition [36] was 42.4% and the inhibition [37] was 82%. The inhibition [38] was 4.1%.
